This experiment concerns the target T1, c-Kit (Homo sapiens, UniProt P10721).
T1 construct: whole cytoplasmic domain of c-Kit (aa 544-976); made in house; host or cells: Sf9 or High Five (baculovirus)
Briefly: c-kit kinase inhibition. The note with it: Table 4. It counts as biochemical.

The structures appear in SMILES notation.

T1 sequence (P10721 544-976): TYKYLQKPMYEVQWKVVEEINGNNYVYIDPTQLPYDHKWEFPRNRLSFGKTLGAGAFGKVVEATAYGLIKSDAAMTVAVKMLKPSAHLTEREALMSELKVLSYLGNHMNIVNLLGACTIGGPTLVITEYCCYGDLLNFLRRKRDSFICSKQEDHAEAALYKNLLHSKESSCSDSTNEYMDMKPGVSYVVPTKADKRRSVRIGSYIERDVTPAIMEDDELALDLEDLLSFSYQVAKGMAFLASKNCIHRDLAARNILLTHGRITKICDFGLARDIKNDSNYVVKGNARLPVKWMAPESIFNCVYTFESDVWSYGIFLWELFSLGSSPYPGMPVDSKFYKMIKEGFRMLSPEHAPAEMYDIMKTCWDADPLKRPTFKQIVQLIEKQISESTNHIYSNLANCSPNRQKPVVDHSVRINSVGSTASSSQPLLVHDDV

Molecule `CN1CCN(c2ccc(-c3cnn4c(N)c(-c5ccsc5)cnc34)cc2)CC1` [Example 21, 3-[4-(4-Methyl-piperazin-1-yl)-phenyl]-6-thiophen-3-yl-pyrazolo[1,5-a]pyrimidin-7-ylamine] showed a half-inhibitory concentration (IC50) of under 10 µM. The same measure for `COc1cccc(-c2cnc3c(-c4cccc(N5CCN(C)CC5)c4)cnn3c2N)c1` [Example 24, 6-(3-Methoxy-phenyl)-3-[3-(4-methyl-piperazin-1-yl)-phenyl]-pyrazolo[1,5-a]pyrimidin-7-ylamine]: under 10 µM.

(Values after US20090099167A1, “Organic compounds” (Novartis Institutes for Biomedical Research, priority 2004, published 2009).)
